From patent publication US11932634B2 (Gilead Sciences, Inc., priority 2021, dated 2024)

Experiments:
human DGKα = molecular target: T1, human DGKα (Homo sapiens, UniProt P23743); test: DGKα Biochemical Activity Assay (ADP-Glo);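 note: recombinant enzyme converting diacylglycerol in lipid micelles with ATP, ADP formed detected by luminescence, IC50 from a four-parameter nonlinear fit, geometric mean across experiments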
T1 construct: purchased Carna Biosciences'; inferred from the same paragraph's 'obtained from Carna Biosciences')

[1] = system: Jurkat NFκB-luciferase cells; test: Jurkat NFκB-Luciferase Assay; assay type: cell-based; conditions: Homo sapiens; Jurkat NFκB-luciferase cells activated with anti-CD3 antibody (OKT3), 2.5 hrs at 37° C., One-Glo Ex; geometric mean; read-out: DGK NFKb Luciferase EC50;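 note: bioluminescence read-out normalized to DMSO basal activation and to maximum enhancement at 1 µM compound, rising signal indicating stronger T-cell activation through DGKα inhibition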

T1 sequence (P23743 whole entry): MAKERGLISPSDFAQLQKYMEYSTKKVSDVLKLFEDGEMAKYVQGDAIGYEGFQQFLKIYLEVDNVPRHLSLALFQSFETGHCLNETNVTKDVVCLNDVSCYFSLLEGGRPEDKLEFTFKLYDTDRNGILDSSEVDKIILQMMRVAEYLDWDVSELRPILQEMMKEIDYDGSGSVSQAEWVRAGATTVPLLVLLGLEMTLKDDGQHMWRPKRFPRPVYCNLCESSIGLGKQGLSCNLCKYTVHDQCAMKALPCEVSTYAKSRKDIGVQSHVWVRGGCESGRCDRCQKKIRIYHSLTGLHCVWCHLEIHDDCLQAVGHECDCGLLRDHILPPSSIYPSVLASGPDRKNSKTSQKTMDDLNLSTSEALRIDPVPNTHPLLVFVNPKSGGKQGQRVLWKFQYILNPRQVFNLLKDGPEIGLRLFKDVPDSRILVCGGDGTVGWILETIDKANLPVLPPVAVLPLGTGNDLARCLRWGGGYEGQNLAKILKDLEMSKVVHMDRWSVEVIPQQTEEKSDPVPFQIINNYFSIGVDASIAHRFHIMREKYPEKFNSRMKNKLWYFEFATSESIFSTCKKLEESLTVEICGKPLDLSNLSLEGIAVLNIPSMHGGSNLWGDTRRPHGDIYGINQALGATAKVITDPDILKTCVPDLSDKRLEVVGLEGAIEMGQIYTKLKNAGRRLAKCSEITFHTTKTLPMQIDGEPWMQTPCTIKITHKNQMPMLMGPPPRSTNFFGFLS

Compound | IC50 (human DGKα) [nM] | EC50 [1] [nM]
CC(C)(C#Cc1cccc(N(CC(F)F)c2nc(=O)[nH]c3cccc(F)c23)c1F)C(F)(F)F [Example 60, 4-[N-(2,2-difluoroethyl)-2-fluoro-3-(4,4,4-trifluoro-3,3-dimethyl-but-1-ynyl)anilino]-5-fluoro-1H-quinazolin-2-one] | 122 | 2.53
CC1(C#Cc2cccc(N(CC(F)F)c3nc(=O)[nH]c4cccc(F)c34)c2F)CC1 [Example 61, 4-[N-(2,2-difluoroethyl)-2-fluoro-3-[2-(1-methylcyclopropyl)ethynyl]anilino]-5-fluoro-1H-quinazolin-2-one] | 48.2 | 1.7
O=c1nc(N(CC(F)F)c2cccc(C#CC3(C(F)F)CC3)c2F)c2c(F)cccc2[nH]1 [Example 62, 4-[N-(2,2-difluoroethyl)-3-[2-[1-(difluoromethyl)cyclopropyl]ethynyl]-2-fluoro-anilino]-5-fluoro-1H-quinazolin-2-one] | 28.2 | 1.13
CC(C)(C#Cc1cccc(N(CC(F)F)c2nc(=O)[nH]c3cccc(F)c23)c1F)C(F)F [Example 63, 4-[3-(4,4-difluoro-3,3-dimethyl-but-1-ynyl)-N-(2,2-difluoroethyl)-2-fluoro-anilino]-5-fluoro-1H-quinazolin-2-one] | 282 | 1.51
[2H]C([2H])([2H])n1c(=O)nc(N(CC(F)F)c2cc(F)cc(C#CC(C)(C)O)c2)c2c(F)c(F)ccc21 [Example 64, 4-[N-(2,2-difluoroethyl)-3-fluoro-5-(3-hydroxy-3-methyl-but-1-ynyl)anilino]-5,6-difluoro-1-(trideuteriomethyl)quinazolin-2-one] | 10.7 | 8.99
CC(C)(O)C#Cc1cc(F)cc(N(CC(F)F)c2nc(=O)[nH]c3ccc(F)c(F)c23)c1 [Example 65, 4-[N-(2,2-difluoroethyl)-3-fluoro-5-(3-hydroxy-3-methyl-but-1-ynyl)anilino]-5,6-difluoro-1H-quinazolin-2-one] | 13.4 | 9.92
[2H]C([2H])([2H])n1c(=O)nc(N(CC(F)F)c2cc(F)cc(C#CC3(C)CCCO3)c2)c2c(F)c(F)ccc21 (stereo not shown) [Example 66, 4-[N-(2,2-difluoroethyl)-3-fluoro-5-[2-(2-methyltetrahydrofuran-2-yl)ethynyl]anilino]-5,6-difluoro-1-(trideuteriomethyl)quinazolin-2-one] | 3.27 | 2.85
[2H]C([2H])([2H])n1c(=O)nc(N(CC(F)F)c2cc(F)cc(-c3cnc(C4CC4)cn3)c2)c2c(F)c(F)ccc21 [Example 67, 4-[3-(5-cyclopropylpyrazin-2-yl)-N-(2,2-difluoroethyl)-5-fluoro-anilino]-5,6-difluoro-1-(trideuteriomethyl)quinazolin-2-one] | 7.57 | 0.527
[2H]C([2H])([2H])n1c(=O)nc(N(CC(F)F)c2cc(F)cc(C#CC(C)(C)C#N)c2)c2c(F)c(F)ccc21 [Example 68, 4-[3-[2,2-difluoroethyl-[5,6-difluoro-2-oxo-1-(trideuteriomethyl)quinazolin-4-yl]amino]-5-fluoro-phenyl]-2,2-dimethyl-but-3-ynenitrile] | 3.29 | 2.53
CC(C)(C#N)C#Cc1cc(F)cc(N(CC(F)F)c2nc(=O)[nH]c3ccc(F)c(F)c23)c1 [Example 69, 4-[3-[2,2-difluoroethyl-(5,6-difluoro-2-oxo-1H-quinazolin-4-yl)amino]-5-fluoro-phenyl]-2,2-dimethyl-but-3-ynenitrile] | 26.7 | 1.8
O=c1nc(N2CCCc3c(Br)cncc32)c2c(F)cccc2[nH]1 [Example 70, 4-(5-bromo-3,4-dihydro-1,7-naphthyridin-1(2H)-yl)-5-fluoroquinazolin-2(1H)-one] | 170 | 40.9
O=c1nc(N2CCCc3c(C#CC4(C(F)(F)F)CC4)cncc32)c2c(F)cccc2[nH]1 [Example 71, 5-fluoro-4-(5-((1-(trifluoromethyl)cyclopropyl)ethynyl)-3,4-dihydro-1,7-naphthyridin-1(2H)-yl)quinazolin-2(1H)-one] | 18.4 | 1.43
CC(C)(C#Cc1cncc2c1CCCN2c1nc(=O)[nH]c2cccc(F)c12)C(F)(F)F [Example 72, 5-fluoro-4-(5-(4,4,4-trifluoro-3,3-dimethylbut-1-yn-1-yl)-3,4-dihydro-1,7-naphthyridin-1(2H)-yl)quinazolin-2(1H)-one] | 126 | 5.71
CC(F)(F)C1(C#Cc2cncc3c2CCCN3c2nc(=O)[nH]c3cccc(F)c23)CC1 [Example 73, 4-(5-((1-(1,1-difluoroethyl)cyclopropyl)ethynyl)-3,4-dihydro-1,7-naphthyridin-1(2H)-yl)-5-fluoroquinazolin-2(1H)-one] | 18.1 | 1.89
O=c1nc(N2CCCc3c(C#CC4(C(F)(F)F)CC4)cncc32)c2c(F)c(F)ccc2[nH]1 [Example 74, 5,6-difluoro-4-(5-((1-(trifluoromethyl)cyclopropyl)ethynyl)-3,4-dihydro-1,7-naphthyridin-1(2H)-yl)quinazolin-2(1H)-one] | 2.83 | 0.222
CC(F)(F)C1(C#Cc2cncc3c2CCCN3c2nc(=O)[nH]c3ccc(F)c(F)c23)CC1 [Example 76, 4-(5-((1-(1,1-difluoroethyl)cyclopropyl)ethynyl)-3,4-dihydro-1,7-naphthyridin-1(2H)-yl)-5,6-difluoroquinazolin-2(1H)-one] | 16.1 | 1.51
CC(C)(C#N)C#Cc1cc(N(CC(F)F)c2nc(=O)[nH]c3ccc(F)c(F)c23)ccn1 [Example 77, 4-[4-[2,2-difluoroethyl-(5,6-difluoro-2-oxo-1H-quinazolin-4-yl)amino]-2-pyridyl]-2,2-dimethyl-but-3-ynenitrile] | 14.1 | 24.2
[2H]C([2H])([2H])n1c(=O)nc(N(CC(F)F)c2ccnc(C#CC(C)(C)C#N)c2)c2c(F)c(F)ccc21 [Example 79, 4-[4-[2,2-difluoroethyl-[5,6-difluoro-2-oxo-1-(trideuteriomethyl)quinazolin-4-yl]amino]-2-pyridyl]-2,2-dimethyl-but-3-ynenitrile] | 2.95 | 11.3
[2H]C([2H])([2H])n1c(=O)nc(N(CC(F)F)c2ccnc(C#CC3(C(F)(F)F)CC3)c2)c2c(F)c(F)ccc21 [Example 80, 4-[2,2-difluoroethyl-[2-[2-[1-(trifluoromethyl)cyclopropyl]ethynyl]-4-pyridyl]amino]-5,6-difluoro-1-(trideuteriomethyl)quinazolin-2-one] | 3.75 | 1.94
CC(C)(O)C#Cc1cccc2c1CCCCN2c1nc(=O)[nH]c2cccc(F)c12 [Example 81, 5-fluoro-4-[6-(3-hydroxy-3-methyl-but-1-ynyl)-2,3,4,5-tetrahydro-1-benzazepin-1-yl]-1H-quinazolin-2-one] | 3.6 | 2.5
CC(C)(O)C#Cc1cccc2c1OCCCN2c1nc(=O)[nH]c2cccc(F)c12 [Example 82, 5-fluoro-4-[9-(3-hydroxy-3-methyl-but-1-ynyl)-3,4-dihydro-2H-1,5-benzoxazepin-5-yl]-1H-quinazolin-2-one] | 4.42 | 18
[2H]C([2H])([2H])n1c(=O)nc(N2CCCOc3c(C#CC(C)(C)O)cccc32)c2c(F)cccc21 [Example 83, 5-fluoro-4-[9-(3-hydroxy-3-methyl-but-1-ynyl)-3,4-dihydro-2H-1,5-benzoxazepin-5-yl]-1-(trideuteriomethyl)quinazolin-2-one] | 13.1 | 16.2
[2H]C([2H])([2H])n1c(=O)nc(N2CCCOc3c(C#CC4(C)CC4)cccc32)c2c(F)cccc21 [Example 84, 5-fluoro-4-[9-[2-(1-methylcyclopropyl)ethynyl]-3,4-dihydro-2H-1,5-benzoxazepin-5-yl]-1-(trideuteriomethyl)quinazolin-2-one] | 3.67 | 0.461
[2H]C([2H])([2H])n1c(=O)nc(N2CCCCc3c(C#CC(C)(C)O)cccc32)c2c(F)cccc21 [Example 85, 5-fluoro-4-[6-(3-hydroxy-3-methyl-but-1-ynyl)-2,3,4,5-tetrahydro-1-benzazepin-1-yl]-1-(trideuteriomethyl)quinazolin-2-one] | 3.31 | 4.08
[2H]C([2H])([2H])n1c(=O)nc(N2CCCCc3c(C#CC4(C)CC4)cccc32)c2c(F)cccc21 [Example 86, 5-fluoro-4-[6-[2-(1-methylcyclopropyl)ethynyl]-2,3,4,5-tetrahydro-1-benzazepin-1-yl]-1-(trideuteriomethyl)quinazolin-2-one] | 1.13 | 0.133
CC(C)(O)C#Cc1cccc2c1COCCN2c1nc(=O)[nH]c2cccc(F)c12 [Example 87, 5-fluoro-4-[6-(3-hydroxy-3-methyl-but-1-ynyl)-3,5-dihydro-2H-4,1-benzoxazepin-1-yl]-1H-quinazolin-2-one] | 9.58 | 30.9
CC(C)(O)C#Cc1cccc2c1COCCN2c1nc(=O)[nH]c2ccc(F)c(F)c12 [Example 88, 5,6-difluoro-4-[6-(3-hydroxy-3-methyl-but-1-ynyl)-3,5-dihydro-2H-4,1-benzoxazepin-1-yl]-1H-quinazolin-2-one] | 4.7 | 21.9
O=c1nc(N2CCOCc3c(C#CC4(C(F)(F)F)CC4)cccc32)c2c(F)c(F)ccc2[nH]1 [Example 89, 5,6-difluoro-4-[6-[2-[1-(trifluoromethyl)cyclopropyl]ethynyl]-3,5-dihydro-2H-4,1-benzoxazepin-1-yl]-1H-quinazolin-2-one] | 2.26 | 0.258
CC(C)(C#N)C#Cc1cccc2c1COCCN2c1nc(=O)[nH]c2ccc(F)c(F)c12 [Example 91, 4-[1-(5,6-difluoro-2-oxo-1H-quinazolin-4-yl)-3,5-dihydro-2H-4,1-benzoxazepin-6-yl]-2,2-dimethyl-but-3-ynenitrile] | 5.24 | 2.67
